Data as given in patent publication US20220324835A1 (Nurix Therapeutics, Inc., priority 2018, published 2022).
Counter-ions that a name gives are not always drawn.

Columns and labels:
[1] = target: Cbl-b (Homo sapiens, UniProt Q13191); assay: Cbl-b inhibition assay (Cbl-b activity assay, FRET, Biological Example 1; 100 mM NaCl, 60 nM Src kinase); format: biochemical; settings: upper bound stated in text lists; read-out: IC50 values in the Cbl-b inhibition assay of Biological Example 1
Method in brief: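 Here, the E2 UbcH5B, irreversibly linked to Bodipy-fluorescein ubiquitin, binds Cbl-b once Src kinase phosphorylates it; Cbl-b carries an N-terminal biotinylated Avi-tag captured by streptavidin-terbium. An absent FRET signal indicates inhibition.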

[2] = system: T-cell; assay: CD25 cell surface staining on T-cells co-stimulated with anti-CD3 and anti-CD28 antibody (Biological Example 2); format: cell-based, human; settings: Homo sapiens, T-cell; for fold induction at 4 µM: 4 μM Cbl-b inhibitor
Method in brief: (§1)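 T-cells were stimulated with anti-CD3 antibody alone or with anti-CD28 antibody, in the presence or absence of Cbl-b inhibitor. IL-2 secretion or CD25 surface staining was measured, and values expressed as fold over the uninhibited baseline […].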

[3] = system: T-cell; assay: IL-2 secretion from T-cells co-stimulated with anti-CD3 and anti-CD28 antibody (Biological Example 2); format: cell-based, human; settings: Homo sapiens, T-cell; for fold induction at 4 µM: 4 μM Cbl-b inhibitor
Method in brief: as §1

[4] = read-out: CD25 staining, Anti-CD3/Anti-CD28 stimulation, fold change over baseline
[5] = read-out: IL-2 secretion, Anti-CD3/Anti-CD28 stimulation, fold change over baseline
[6] = fold change over baseline, 0.3 μM Cbl-b inhibitor, primary human total T-cells, read-out: CD25 staining Anti-CD3/Anti-CD28 stimulation
[7] = fold change over baseline, 1 μM Cbl-b inhibitor, primary human total T-cells, read-out: CD25 staining Anti-CD3/Anti-CD28 stimulation
[8] = fold change over baseline, primary human total T-cells, read-out: CD25 staining Anti-CD3/Anti-CD28 stimulation
[9] = fold change over baseline, 0.3 μM Cbl-b inhibitor, primary human total T-cells, read-out: IL-2 secretion Anti-CD3/Anti-CD28 stimulation
[10] = fold change over baseline, 1 μM Cbl-b inhibitor, primary human total T-cells, read-out: IL-2 secretion Anti-CD3/Anti-CD28 stimulation
[11] = fold change over baseline, primary human total T-cells, read-out: IL-2 secretion Anti-CD3/Anti-CD28 stimulation
[12] = 0.3 μM compound, primary human total T-cells, baseline = anti-CD3/anti-CD28 stimulated cells without inhibitor, read-out: CD25 staining, Anti-CD3/Anti-CD28 stimulation, fold change over baseline
[13] = 1 μM compound, primary human total T-cells, baseline = anti-CD3/anti-CD28 stimulated cells without inhibitor, read-out: CD25 staining, Anti-CD3/Anti-CD28 stimulation, fold change over baseline
[14] = 0.3 μM compound, primary human total T-cells, baseline = anti-CD3/anti-CD28 stimulated cells without inhibitor, read-out: IL-2 secretion, Anti-CD3/Anti-CD28 stimulation, fold change over baseline
[15] = 1 μM compound, primary human total T-cells, baseline = anti-CD3/anti-CD28 stimulated cells without inhibitor, read-out: IL-2 secretion, Anti-CD3/Anti-CD28 stimulation, fold change over baseline

Sequence of Cbl-b (Q13191 36-427): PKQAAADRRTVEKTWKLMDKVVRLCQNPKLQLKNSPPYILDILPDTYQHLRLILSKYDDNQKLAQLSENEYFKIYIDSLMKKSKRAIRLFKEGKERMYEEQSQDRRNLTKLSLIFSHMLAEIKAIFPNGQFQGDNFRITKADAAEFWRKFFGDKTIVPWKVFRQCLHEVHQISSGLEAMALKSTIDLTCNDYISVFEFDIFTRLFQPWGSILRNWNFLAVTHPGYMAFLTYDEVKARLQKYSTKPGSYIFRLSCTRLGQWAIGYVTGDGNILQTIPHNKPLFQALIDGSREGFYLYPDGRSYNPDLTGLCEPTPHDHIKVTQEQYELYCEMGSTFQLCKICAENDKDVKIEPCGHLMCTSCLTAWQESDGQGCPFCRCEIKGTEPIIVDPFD

| SMILES | IC50 [1] [µM] | fold induction at 0.3 µM [2, 6] | fold induction at 1 µM [2, 7] | fold induction at 4 µM [2, 8] | fold induction at 0.3 µM [3, 9] | fold induction at 1 µM [3, 10] | fold induction at 4 µM [3, 11] | further results |
| --- | --- | --- | --- | --- | --- | --- | --- | --- |
| CN1CC2CCC(C1)N2c1cc2c(c(C(F)(F)F)c1)CN(c1cccc(C3(Cc4nncn4C)COC3)c1)C2=O [Compound 386, 2-(3-(3-((4-Methyl-4H-1,2,4-triazol-3-yl)methyl)oxetan-3-yl)phenyl)-6-(3-methyl-3,8-diazabicyclo[3.2.1]octan-8-yl)-4-(trifluoromethyl)isoindolin-1-one] | ≤ 0.1 |  |  |  |  |  |  | fold induction at 0.3 µM [2, 4]: 1.31 to 1.5; fold induction at 1 µM [2, 4]: 1.31 to 1.5; fold induction at 0.3 µM [3, 5]: > 7.5; fold induction at 1 µM [3, 5]: > 7.5 |
| C[C@H](Sc1nncn1C)c1cccc(NC(=O)c2cc3cc(OCC(=O)NCCN)ccc3cn2)c1 [Compound 311, 6-[2-(2-aminoethylamino)-2-oxo-ethoxy]-N-[3-[(1S)-1-[(4-methyl-1,2,4-triazol-3-yl)sulfanyl]ethyl]phenyl]isoquinoline-3-carboxamide hydrochloride] | ≤ 0.3 | < 1 | < 1 | 1.01 to 1.3 | < 1 | < 1 | 1.01 to 2.5 |  |
| C[C@H](Cc1nncn1C)c1cccc(N2Cc3c(cc(C(=O)N4CC[C@H](O)C4)cc3C3CC3)C2=O)c1 [Compound 277, 4-cyclopropyl-6-((S)-3-hydroxypyrrolidine-1-carbonyl)-2-(3-((R)-1-(4-methyl-4H-1,2,4-triazol-3-yl)propan-2-yl)phenyl)isoindolin-1-one] | ≤ 0.1 | 1.01 to 1.3 | 1.01 to 1.3 | 1.31 to 1.5 | 1.01 to 2.5 | 2.51 to 5 | 2.51 to 5 |  |
| Cn1cnnc1CC1(c2cccc(NC(=O)c3cc(CN4CC[C@H](F)C4)cc(C4CC4)n3)c2)COC1 [Compound 496, 6-cyclopropyl-4-{[(3S)-3-fluoropyrrolidin-1-yl]methyl}-N-(3-{3-[(4-methyl-1,2,4-triazol-3-yl)methyl]oxetan-3-yl}phenyl)pyridine-2-carboxamide] | ≤ 0.1 |  |  |  |  |  |  | fold induction at 0.3 µM [2, 12]: 1.51 to 1.75; fold induction at 1 µM [2, 13]: 1.51 to 1.75; fold induction at 0.3 µM [3, 14]: > 7.5; fold induction at 1 µM [3, 15]: > 7.5 |
| Cn1cnnc1[C@@H](F)C1(c2cccc(N3Cc4c(cc(CN5CCC(F)CC5)cc4C(F)(F)F)C3=O)c2)COC1 [Example 670a, (S)-2-(3-(3-(fluoro(4-methyl-4H-1,2,4-triazol-3-yl)methyl)oxetan-3-yl)phenyl)-6-((4-fluoropiperidin-1-yl)methyl)-4-(trifluoromethyl)isoindolin-1-one] | ≤ 0.1 |  |  |  |  |  |  | fold induction at 0.3 µM ([2]; 0.3 μM Cbl-b inhibitor, fold change over baseline (anti-CD3/anti-CD28 stimulated T-cells without inhibitor), read-out: CD25 staining Anti-CD3/Anti-CD28 stimulation): 1.51 to 1.75; fold induction at 1 µM ([2]; 1 μM Cbl-b inhibitor, fold change over baseline (anti-CD3/anti-CD28 stimulated T-cells without inhibitor), read-out: CD25 staining Anti-CD3/Anti-CD28 stimulation): 1.51 to 1.75; fold induction at 0.3 µM ([3]; 0.3 μM Cbl-b inhibitor, fold change over baseline (anti-CD3/anti-CD28 stimulated T-cells without inhibitor), read-out: IL-2 secretion Anti-CD3/Anti-CD28 stimulation): 5 to 7.5; fold induction at 1 µM ([3]; 1 μM Cbl-b inhibitor, fold change over baseline (anti-CD3/anti-CD28 stimulated T-cells without inhibitor), read-out: IL-2 secretion Anti-CD3/Anti-CD28 stimulation): > 7.5 |
| Cn1cnnc1CC1(c2cccc(N3Cc4c(cc(CN5CCC[C@H](F)C5)cc4C(F)(F)F)C3=O)c2)COC1 [Compound 432, 6-{[(3S)-3-fluoropiperidin-1-yl]methyl}-2-(3-{3-[(4-methyl-4H-1,2,4-triazol-3-yl)methyl]oxetan-3-yl}phenyl)-4-(trifluoromethyl)-2,3-dihydro-1H-isoindol-1-one] | ≤ 0.1 |  |  |  |  |  |  | fold induction at 0.3 µM [2, 12]: 1.31 to 1.5; fold induction at 1 µM [2, 13]: 1.31 to 1.5; fold induction at 0.3 µM [3, 14]: > 7.5; fold induction at 1 µM [3, 15]: > 7.5 |
| C[C@H](Cc1nncn1C)c1cccc(NC(=O)c2nc3c(C(F)(F)F)cccc3[nH]2)c1 [Compound 196, N-[3-[(1R)-1-methyl-2-(4-methyl-1,2,4-triazol-3-yl)ethyl]phenyl]-4-(trifluoromethyl)-1H-benzimidazole-2-carboxamide] | ≤ 0.1 | 1.01 to 1.3 | 1.51 to 1.75 | > 1.76 | 2.51 to 5 | 5 to 7.5 | > 7.5 |  |
